Results: patent US20050226878A1, “Therapeutic combinations and methods including IRM compounds” (3M Innovative Properties Company, priority 2003, published 2005)

Tests used:
[1] = system: Peripheral blood mononuclear cells (PBMCs); assay: Example 1: IFN-α secreted by PBMCs treated with IRM1 after dexamethasone pre-incubation (ELISA); format: cell-based, human; conditions: IRM1 1 μM, no dexamethasone, 24 hours
Description: (§1) Whole blood from healthy human donors was collected by venipuncture into EDTA vacutainer tubes (Becton Dickinson Labware, Lincoln Park, N.J.). Peripheral blood mononuclear cells (PBMCs) are separated from whole blood by density gradient centrifugation using HISTOPAQUE-1077 (Sigma-Aldrich Chemical Co., St. Louis, Mo.). The PBMCs are washed twice with Hank's Balanced Salts Solution (Celox Laboratories, Inc., Hopkins, Minn.) and then are suspended at 3-4×10^6 cells/mL in RPMI complete culture medium (Celox Laboratories, Inc., Hopkins, Minn.). The PBMC suspension was added to 48 well flat bottom sterile tissue culture plates (Becton Dickinson Labware, Lincoln Park, N.J.) containing an equal volume of RPMI complete media containing dexamethasone (Sigma Chemical Co., St. Louis, Mo.) at one of the dexamethasone concentrations indicated in Table 2. After one hour, IRMI was added to a final concentration of 1 μM, and then incubated at 37° C. for an additional 24 hours. Following incubation the cells were centrifuged for 5-10 minutes at 1000 rpm (˜200×g) at 4° C. […] The samples were analyzed for IFN-α and TNF-α secreted into the culture medium. The concentration of secreted IFN-α was determined by ELISA using a Human Multi-Species kit (PBL Biomedical Laboratories, Piscataway, N.J.). […]

[2] = system: Peripheral blood mononuclear cells (PBMCs); assay: Example 1: TNF-α secreted by PBMCs treated with IRM1 after dexamethasone pre-incubation (ELISA); format: cell-based, human; conditions: IRM1 1 μM, no dexamethasone, 24 hours
Description: as §1

Human PBMCs [3] = assay: Example 4: IL-6 secreted by PBMCs with or without anti-TNF monoclonal antibody (ELISA); format: cell-based; conditions: IRM2 1.0 μg/mL, LPS 0.1 μg/mL, 24 hours
Description: (§2) Human PBMCs were collected and prepared as described in Example 1. The cells were incubated with an anti-TNF monoclonal antibody (mouse anti-human TNF, Promega Corp., Madison, Wis.). After one hour, the cells were treated with IRM compound, LPS, or left unstimulated, and then incubated for an additional 24 hours.
(§3) Secreted TNF-α and IL-6 were assayed by ELISA (Biosource International, Inc., Camarillo, Calif.). Results are expressed in pg/mL for each cytokine.

Human PBMCs [4] = assay: Example 4: TNF-α secreted by PBMCs with or without anti-TNF monoclonal antibody (ELISA); format: cell-based; conditions: IRM2 1.0 μg/mL, LPS 0.1 μg/mL, 24 hours
Description: as §2, §3

Human PBMCs [5] = assay: Example 2: TNF-α secreted by PBMCs treated with IRM compound or LPS after dexamethasone pre-incubation (ELISA); format: cell-based; conditions: IRM2 1.0 μg/mL, LPS 0.1 μg/mL, 24 hours
Description: Human PBMCs were collected and prepared as described in Example 1. After one hour, the cells were treated with IRM compound, LPS, or left unstimulated, and then incubated for an additional 24 hours.
Secreted TNF-α was assayed by ELISA (Biosource International, Inc., Camarillo, Calif.).

male CFW mice = assay: Example 3: serum TNF in mice challenged with IRM2 after oral dexamethasone (ELISA); format: in vivo; conditions: IRM2 10 mg/kg, no dexamethasone
Description: A dexamethasone solution was prepared in saline and administered orally (3 mg/kg) to male CFW mice (Charles River Laboratories, Inc., Wilmington, Mass.) once or once daily for five days. Thirty minutes after the final administration of dexamethasone, the mice were challenged with a solution of IRM2 prepared in saline to provide a dose of 10 mg/kg. The mice were bled either 2 hours or 3 hours after being challenged with IRM2. Serum samples were analyzed by for TNF by ELISA as described in Example 1.

Human PBMCs [6] = assay: Example 4: IFN secreted by PBMCs with or without anti-TNF monoclonal antibody (virus neutralization bioassay, A549 cells/encephalomyocarditis virus); format: cell-based; conditions: IRM2 1.0 μg/mL, LPS 0.1 μg/mL, 24 hours
Description: as §2
Secreted IFN was assayed using a virus neutralization bioassay using A549 human lung carcinoma cells challenged with encephalomyocarditis. The details of the bioassay method have been described by G. L. Brennan and L. H. Kronenberg in “Automated Bioassay of Interferons in Micro-test Plates”, Biotechniques, June/July, 78, 1983, incorporated herein by reference. Briefly stated the method is as follows: A549 cells are incubated with dilutions of samples or a standard interferon at 37° C. for 24 hours. The incubated cells are then infected with an inoculum of encephalomyocarditis virus. The infected cells are incubated for an additional 24 hours at 37° C. before evaluating for viral cytopathic effect. The viral cytopathic effect is quantified by staining with crystal violet followed by visual scoring of the plates. Results are expressed as alpha reference units/mL based on the value obtained for NIH Human Leukocyte IFN standard.

PBMCs [7] = assay: Example 6: TNF-α induction by PBMCs with anti-TNF antibody or isotype control (immunoassay, FIG. 2); format: cell-based, human; conditions: for TNF-α induced in combination with anti-TNF antibody: IRM 3 μM + 1 μg/mL anti-TNF antibody, FIG. 2B; for TNF-α induction: IRM 3 μM alone (isotype control antibody), FIG. 2A
Description: (§4) Whole blood from healthy human donors was collected by venipuncture into EDTA vacutainer tubes (Becton Dickinson Labware, Lincoln Park, N.J.). […] The PBMCs are washed twice with Phosphate Buffered Saline (PBS, Biosource, Camarillo, Calif.) and then are suspended at 5×10^6 cells/mL in RPMI complete culture medium (Celox Laboratories, Inc., Hopkins, Minn.). One milliliter of the PBMC suspension and 1.5 milliliter of RPMI complete media were added to each well of a 24 well flat bottom sterile tissue culture plate (Becton Dickinson Labware, Lincoln Park, N.J.) for a final PBMC concentration of 2×10^6 cells/mL.
(§5) Following incubation the cells were centrifuged for 5-10 minutes at 1000 rpm (˜200×g) at 4° C. The cell-free culture supernatant was removed with a sterile polypropylene pipette and transferred to sterile polypropylene tubes. Samples were maintained at −70° C. until analysis.
(§6) The samples were analyzed for IFN-α, TNF-α and IFN-γ secreted into the culture medium. The concentration of secreted IFN-α was determined by ELISA using a Human Multi-Species kit (PBL Biomedical Laboratories, Piscataway, N.J.). Secreted TNF-α and IFN-γ were analyzed using a human-specific TNF-α BV™ or IFN-γ BV™ immunoassay (BioVeris Corp., Gaithersburg, Md.).

PBMCs [8] = assay: Example 6: IFN-α induction by PBMCs with anti-TNF antibody or isotype control (ELISA, FIG. 1); format: cell-based, human; conditions: for IFN-α produced in combination with anti-TNF antibody versus IRM alone: IRM 3 μM + 1 μg/mL anti-TNF antibody, FIG. 1B versus FIG. 1A
Description: as §4, §5, §6

[9] = +Ab (anti-TNF monoclonal antibody)

`CCOCc1nc2c(N)nc3ccccc3c2n1CC(C)(C)O` [IRM1, 4-amino-α,α-dimethyl-2-ethoxymethyl-1H-imidazo[4,5-c]quinolin-1-ethanol] was tested, and the IFN [1] was 959 U/mL and the TNF [2] was 3000 pg/mL.
In the case of `Cc1nc2c(N)nc3ccccc3c2n1CC(C)(C)O` [IRM2, 4-amino-α,α,2-trimethyl-1H-imidazo[4,5-c]quinoline-1-ethanol], the IL-6 (Human PBMCs [3]; [9]) is reported as 24189 pg/mL, the IL-6 (Human PBMCs [3]; No Ab) is reported as 20137 pg/mL and the TNF (Human PBMCs [4]; [9]) is reported as 61 pg/mL. For the same compound, the TNF (Human PBMCs [4]; No Ab) was 1340 pg/mL, the “Secreted TNF-α” value (Human PBMCs [5]; 0 μM Dex.) was 1570 pg/mL and the “Secreted TNF-α” value (Human PBMCs [5]; 0.01 μM Dex.) was 775 pg/mL. For the same compound, the “Secreted TNF-α” value (Human PBMCs [5]; 0.1 μM Dex.) was 224 pg/mL, the “Secreted TNF-α” value (Human PBMCs [5]; 1.0 μM Dex.) was 191 pg/mL and the “Serum TNF” value (male CFW mice; 2 hrs. post-challenge) was 2983 pg/mL. For the same compound, the “Serum TNF” value (male CFW mice; 3 hrs. post-challenge) was 487 pg/mL, the IFN (Human PBMCs [6]; [9]) was 290 U/mL and the IFN (Human PBMCs [6]; No Ab) was 460 U/mL.
With `COCCc1nc2c(N)nc3ccccc3c2n1CCOCCNC(=O)N1CCOCC1` [IRM12, N-(2-{2-[4-amino-2-(2-methoxyethyl)-1H-imidazo[4,5-c]quinolin-1-yl]ethoxy}ethyl)morpholine-4-carboxamide] the “TNF-α induced in combination with anti-TNF antibody” value (PBMCs [7]) was “substantially limited”, the TNF-α induction (PBMCs [7]) was “significant levels” and the “IFN-α produced in combination with anti-TNF antibody versus IRM alone” value (PBMCs [8]) was “increased levels”.
With `CCOCc1nc2c(N)nc3c(c2n1CC(C)(C)O)CCCC3` [IRM5, 4-amino-2-(ethoxymethyl)-α,α-dimethyl-6,7,8,9-tetrahydro-1H-imidazo[4,5-c]quinoline-1-ethanol] the “TNF-α induced in combination with anti-TNF antibody” value (PBMCs [7]) was “substantially limited”, the TNF-α induction (PBMCs [7]) was “significant levels” and the “IFN-α produced in combination with anti-TNF antibody versus IRM alone” value (PBMCs [8]) was “increased levels”.
For `CCc1nc2c(N)nc3ccccc3c2n1CCCCNS(C)(=O)=O` [IRM8, N-[4-(4-amino-2-ethyl-1H-imidazo[4,5-c]quinolin-1-yl)butyl]methanesulfonamide], the TNF-α induction (PBMCs [7]) was “relatively poor inducer”, the “IFN-α produced in combination with anti-TNF antibody versus IRM alone” value (PBMCs [8]) was “increased levels” and the IFN-α induction (PBMCs [8]; IRM 3 μM alone (isotype control antibody), FIG. 1A, compared to other IRM compounds) was “relatively potent inducer”.
